From US20110230430A1, “SAPONIN EXTRACT FROM SAPONARIA SPP. AND USES THEREOF” (NATIONAL RESEARCH COUNCIL OF CANADA, priority 2008, published 2011)

Columns and labels:
[1] = system: PC-3 cells; assay: Dual Sensor: MitoCasp Assay in PC-3 prostate cancer cells; type: cell-based, human
Description: (§1) Techniques to assay enzymatic and signaling processes involved in apoptosis have been developed as standard protocols. One example of an early step in apoptosis, is the release of cytochrome C from mitochondria and the activation of caspase-3. Induction of the caspases (a series of cytosolic proteases) is one of the most consistently observed features of apoptosis. Caspases are a family of proteolytic enzymes that transmit the apoptotic signal using a proteolytic cascade. […] Caspases 3 and 7 are effector caspases, central to the caspase cascade pathways. In particular, caspase-3 plays a central role in the process. When caspases are activated, they cleave target proteins; one of the most important of these is poly-(ADP-ribose) polymerase (PARP), which is a protein located in the nucleus. Therefore, assays detecting release of cytochrome C, detecting caspase-3 activity and detecting PARP degradation are effective determinants of apoptosis. The loss of mitochondrial membrane potential is known to occur during apoptosis. To analyze mitochondrial membrane potential, a cationic dye may be used which accumulates in the mitochondria of healthy cells. Collapse of the mitochondrial membrane potential during apoptosis prevents the dye from accumulating in the mitochondria resulting in a decrease in fluorescent intensity that can be detected with flow cytometry. Dual Sensor: MitoCasp™ (Cell Technology) used herein in the Examples is an assay that measures caspase 3/7 activity and cells with decreased mitochondrial membrane potential. In this assay, caspase 3/7 activity is detected using a cell permeable carboxyfluorescein labeled caspase inhibitor, which binds covalently to active caspases 3 and 7. Cells that contain bound inhibitor are detected by an increase in fluorescence when samples are analyzed by flow cytometry.
PC-3 cells (ATCC #CRL-1435) were derived from a prostate adenocarcinoma (Kaighn et al., 1979). They were maintained in RPMI 1640 medium (Gibco) supplemented with 10% fetal bovine serum (Cansera), 100 U/mL penicillin, and 100 μg/mL streptomycin and 0.25 μg/mL amphotericin B. Cultures were maintained in medium at 37° C. with 5% CO2 and 100% relative humidity.
To harvest adherent cells, the existing medium was removed and cells were dissociated with 0.25% (w/v) trypsin-EDTA·4Na in Hank's Balanced Salt Solution (Gibco). To block the proteolytic action of the trypsin, the cells were resuspended in an excess of media containing fetal bovine serum. Cells were transferred to a 15 mL conical centrifuge tube and pelleted by centrifugation at 500×g for 5 min. Cell pellets were resuspended in media, and an aliquot of the cells were seeded into a new flask.
PC-3 cells were seeded in tissue culture flasks with regular growth medium and maintained under normal conditions. […] Following incubation under normal growth conditions for the specified time, cells were washed once with cold phosphate-buffered saline (PBS) (137 mM NaCl, 2.7 mM KCl, 4.3 mM Na2HPO4.7H2O, 1.4 mM KH2PO4) and harvested as previously described. Assays were carried out according to instructions given in kits. All Flow Cytometry was performed using a Coulter Epics XL (Beckman).
(§2) Following centrifugation at 500×g for 5 min, cell pellets were resuspended in PBS at 3.3×10^6 cells/mL. 300 μL cell suspension was mixed with 10 μL each of 30X Mitochondria Membrane Potential Dye and 30X Caspase 3/7 detection reagent. Following incubation for 60 min under normal growth conditions, cells were washed twice with 1× wash buffer and resuspended in 0.5 mL 1× wash buffer. Samples were analyzed by flow cytometry measuring the fluorescence emissions from 515 nm to 530 nm for caspase detection, and 574 nm to 600 nm for mitochondrial membrane potential detection.

[2] = system: HT-29 cancer cells; assay: Dual Sensor: MitoCasp Assay in HT-29 colon cancer cells; type: cell-based, human; settings: HT-29 cells, 2.5 μM, 24 hours
Description: as §1, with “To analyze mitochondrial membrane potential, a cationic dye may be used which accumulates in the mitochondria of healthy cells.” left out, “Dual Sensor: MitoCasp™ (Cell Technology) used herein in the Examples is an assay that measures caspase 3/7 activity and cells with decreased mitochondrial membrane potential.” left out
Following PC1448 treatment, adherent and non-adherent cells were harvested and washed with cold PBS. […] Samples were analyzed by flow cytometry measuring the fluorescence emissions from 515 nm to 530 nm for caspase detection, and 574 nm to 600 nm for mitochondrial membrane potential detection. […]
HT-29 cancer cells were treated with 2.5 μM, 5.0 μM and 10 μM of PC1526 or PC1448 for 23 hours, or with 2.5 μM, 5.0 μM and 10 μM PC1422 for 24 hours and assessed using the Dual Sensor: MitoCasp™ Assay. […]

[3] = system: CRL-2522 cells; assay: Dual Sensor: MitoCasp Assay in CRL-2522 normal fibroblast cells; type: cell-based, human
Description: as §1, §2
CRL-2522 cells, acquired from ATCC, (American Type Culture Collection) are normal fibroblast cells that originated from human foreskin. CRL-2522 cells were maintained in RPMI 1640 medium (Gibco) supplemented with 10% fetal bovine serum (Cansera), 100 U/mL penicillin, 100 μg/mL streptomycin and 0.25 μg/mL amphotericin B. Cultures were maintained in medium at 37° C. with 5% CO2 and 100% relative humidity. […]

[4] = system: MDA-MB-231 cells; assay: Dual Sensor: MitoCasp Assay in MDA-MB-231 breast cancer cells; type: cell-based, human
Description: as §1, §2
The MDA-MB-231 cell line (ATCC #HTB-26) was derived from the pleural effusion of a patient with a breast adenocarcinoma (Cailleau et al., 1974). The cells were maintained in RPMI 1640 (Gibco) supplemented with 10% fetal bovine serum (Camera), 100 U/mL penicillin, 100 μg/mL streptomycin and 0.25 μg/mL amphotericin B. Cultures were maintained in medium at 37° C. with 5% CO2 and 100% relative humidity. […]

[5] = Haemolytic properties of selected saponins; settings: saponins purified to more than 75%
Description: The haemolytic properties of the various saponins that have been purified to more than 75% have been examined and are provided in Table 39. Haemolytic properties are not directly related to anti-cancer or apoptosis inducing properties of saponins but may be related to toxicity and utility of the saponins for preparation of injectable formulations. Saponins most suitable for injectable formulation will be less haemolytic. QS21, a purified Quillaja saponaria saponin with known haemolytic activity is used as reference.

[6] = system: MCF-7 cells; assay: Dual Sensor: MitoCasp Assay in MCF-7 breast cancer cells; type: cell-based, human; settings: 5 and 10 μM, 24 hours
Description: Techniques to assay enzymatic and signaling processes involved in apoptosis have been developed as standard protocols. One example of an early step in apoptosis, is the release of cytochrome C from mitochondria and the activation of caspase-3. Induction of the caspases (a series of cytosolic proteases) is one of the most consistently observed features of apoptosis. Caspases are a family of proteolytic enzymes that transmit the apoptotic signal using a proteolytic cascade. […] Caspases 3 and 7 are effector caspases, central to the caspase cascade pathways. In particular, caspase-3 plays a central role in the process. […] Collapse of the mitochondrial membrane potential during apoptosis prevents the dye from accumulating in the mitochondria resulting in a decrease in fluorescent intensity that can be detected with flow cytometry. […] In this assay, caspase 3/7 activity is detected using a cell permeable carboxyfluorescein labeled caspase inhibitor, which binds covalently to active caspases 3 and 7. Cells that contain bound inhibitor are detected by an increase in fluorescence when samples are analyzed by flow cytometry. […]
MCF-7 cells were treated with 5.0 μM and 10 μM of saponins PC1526, PC1464 and PC1422 for 24 hours and assessed using Dual Sensor: MitoCasp™ Assay.

[7] = system: PC-3, MDA-MB-231, WiDr, and HT-29 Cells; assay: Order of apoptosis potency across cancer cell lines; parameters: species or system human; settings: rank based on responses observed in PC-3, MDA-MB-231, WiDr, and HT-29 Cells; 1 = most active
[8] = CRL-2522 cells, 2.5 μM PC1380, 32 hr
[9] = CRL-2522 cells, 5.0 μM PC1380, 32 hr
[10] = CRL-2522 cells, 10.0 μM PC1380, 32 hr
[11] = CRL-2522 cells, 15.0 μM PC1380, 32 hr
[12] = CRL-2522 cells, 2.5 μM PC1422, 36 hr
[13] = CRL-2522 cells, 5.0 μM PC1422, 36 hr
[14] = CRL-2522 cells, 10.0 μM PC1422, 36 hr
[15] = CRL-2522 cells, 15.0 μM PC1422, 36 hr
[16] = 5.0 μM saponin, 36 hours (comparison of saponins)

Compound: CC1OC(OC(=O)C23CCC(C)(C)CC2C2=CCC4C5(C)CCC(OC6OC(C(=O)O)C(O)C(O)C6OC6OC(CO)C(O)C(O)C6O)C(C)(C=O)C5CCC4(C)C2(C)CC3O)C(OC2OC(C)C(OC3OCC(O)C(O)C3O)C(O)C2O)C(OC2OC(CO)C(O)C2O)C1O (centres unmarked) [PC1380]
- Cells with caspase 3/7 activity ([1]; 2.5 μM PC1380, 35 hr): 11.4%
- Cells with decreased mitochondrial membrane potential ([1]; 2.5 μM PC1380, 35 hr): 5.8%
- Cells with caspase 3/7 activity ([1]; 5.0 μM PC1380, 35 hr): 15.3%
- Cells with decreased mitochondrial membrane potential ([1]; 5.0 μM PC1380, 35 hr): 7.1%
- Cells with caspase 3/7 activity ([1]; 10.0 μM PC1380, 35 hr): 14.9%
- Cells with decreased mitochondrial membrane potential ([1]; 10.0 μM PC1380, 35 hr): 8.7%
- Cells with caspase 3/7 activity ([1]; 15.0 μM PC1380, 35 hr): 31.8%
- Cells with decreased mitochondrial membrane potential ([1]; 15.0 μM PC1380, 35 hr): 15.9%
- Cells with Caspase 3/7 activity and decreased mitochondrial membrane potential vs untreated (in words) ([1]; PC1380 15.0-2.5 μM, 35 hours): small increase
- Induction of apoptosis (in words, FIG. 6) ([2]; 5.0 μM, 10 μM and 15 μM): does not induce apoptosis
- Cells with caspase 3/7 activity [3, 8]: 0.4%
- Cells with decreased mitochondrial membrane potential [3, 8]: 1.8%
- Cells with caspase 3/7 activity [3, 9]: 1.0%
- Cells with decreased mitochondrial membrane potential [3, 9]: 4.0%
- Cells with caspase 3/7 activity [3, 10]: 1.2%
- Cells with decreased mitochondrial membrane potential [3, 10]: 2.6%
- Cells with caspase 3/7 activity [3, 11]: 0.9%
- Cells with decreased mitochondrial membrane potential [3, 11]: 4.5%
- Apoptosis (in words) ([3]; CRL-2522 cells, PC1380 15.0-2.5 μM, 32 hours): no significant apoptosis
- Cells with caspase 3/7 activity ([4]; 2.5 μM PC1380, 34 hr): 6.2%
- Cells with decreased mitochondrial membrane potential ([4]; 2.5 μM PC1380, 34 hr): 3.2%
- Cells with caspase 3/7 activity ([4]; 5.0 μM PC1380, 34 hr): 8.0%
- Cells with decreased mitochondrial membrane potential ([4]; 5.0 μM PC1380, 34 hr): 4.7%
- Cells with caspase 3/7 activity ([4]; 10.0 μM PC1380, 34 hr): 9.4%
- Cells with decreased mitochondrial membrane potential ([4]; 10.0 μM PC1380, 34 hr): 6.6%
- Cells with caspase 3/7 activity ([4]; 15.0 μM PC1380, 34 hr): 7.9%
- Cells with decreased mitochondrial membrane potential ([4]; 15.0 μM PC1380, 34 hr): 4.3%
- Apoptosis activity (in words) ([4]; PC1380 15.0-2.5 μM, 34 hours): no significant apoptosis activity

Compound: QS21 [reference compound]
- HD50 [5]: 7.5 µM

Compound: Vaccaroside E [PC1422]
- HD50 [5]: 43.8 µM
- Cells with caspase 3/7 activity ([1]; 2.5 μM PC1422, 36 hr): 42.2%
- Cells with decreased mitochondrial membrane potential ([1]; 2.5 μM PC1422, 36 hr): 23.6%
- Cells with caspase 3/7 activity ([1]; 5.0 μM PC1422, 36 hr): 49.1%
- Cells with decreased mitochondrial membrane potential ([1]; 5.0 μM PC1422, 36 hr): 30.0%
- Cells with caspase 3/7 activity ([1]; 10.0 μM PC1422, 36 hr): 55.7%
- Cells with decreased mitochondrial membrane potential ([1]; 10.0 μM PC1422, 36 hr): 53.7%
- Cells with caspase 3/7 activity ([1]; 15.0 μM PC1422, 36 hr): 57.1%
- Cells with decreased mitochondrial membrane potential ([1]; 15.0 μM PC1422, 36 hr): 53.3%
- Concentration of greatest effect on apoptosis ([1]; 36 hours): above 10 μM
- Induction of apoptosis at concentrations as low as ([1]; 36 hours): 2.5 µM
- Induction of apoptosis (in words, FIG. 16) [6]: do not induce apoptosis
- Caspase 3/7 activity compared to untreated cells / induction of apoptosis (in words, FIG. 5) ([2]; 5.0 μM and 10 μM): increase in caspase 3/7 activity
- Cells with caspase 3/7 activity [3, 12]: 3.1%
- Cells with decreased mitochondrial membrane potential [3, 12]: 3.4%
- Cells with caspase 3/7 activity [3, 13]: 15.3%
- Cells with decreased mitochondrial membrane potential [3, 13]: 5.1%
- Cells with caspase 3/7 activity [3, 14]: 12.8%
- Cells with decreased mitochondrial membrane potential [3, 14]: 19.2%
- Cells with caspase 3/7 activity [3, 15]: 7.3%
- Cells with decreased mitochondrial membrane potential [3, 15]: 26.2%
- Cells with Caspase 3/7 activity and decreased mitochondrial membrane potential vs untreated (in words) ([3]; CRL-2522 cells, PC1422 15.0-2.5 μM, 36 hours): modest increase
- Apoptosis in non-cancerous cell line (summary in words) ([3]; fibroblast cell line CRL-2522, summary of the Examples): no or little apoptosis
- Order of Apoptosis Potency [7]: 4
- Cells with caspase 3/7 activity ([4]; 2.5 μM PC1422, 36 hr): 21.1%
- Cells with decreased mitochondrial membrane potential ([4]; 2.5 μM PC1422, 36 hr): 13.7%
- Cells with caspase 3/7 activity ([4]; 5.0 μM PC1422, 36 hr): 32.2%
- Cells with decreased mitochondrial membrane potential ([4]; 5.0 μM PC1422, 36 hr): 32.9%
- Cells with caspase 3/7 activity [4, 16]: 41.2%
- Cells with decreased mitochondrial membrane potential [4, 16]: 21.7%
- Cells with caspase 3/7 activity ([4]; 10.0 μM PC1422, 36 hr): 41.6%
- Cells with decreased mitochondrial membrane potential ([4]; 10.0 μM PC1422, 36 hr): 46.0%
- Cells with caspase 3/7 activity ([4]; 15.0 μM PC1422, 36 hr): 26.7%
- Cells with decreased mitochondrial membrane potential ([4]; 15.0 μM PC1422, 36 hr): 65.2%
- Concentration of greatest effect on apoptosis ([4]; 36 hours): 15 µM
- Induction of apoptosis at concentrations as low as ([4]; 36 hours): 2.5 µM
